Values quoted from earlier work in patent publication US7166468B2, “Production of the lantibiotic cinnamycin with genes isolated from Streptomyces cinnamoneus” (Plant Bioscience Limited, priority 2001, dated 2007).
Ends that are not written are not given here.

System: B. subtilis
Settings: stated as known activity

Substance: cinnamycin (CRQSCSFGPFTFVCDGNTK; thioether (positions not given here); not fully specified (bridges); also: lanthionine bridges, positions not given here)
- Known activity of cinnamycin: inhibition of the growth of B. subtilis strains: inhibition of the growth of the B. subtilis strains
